In ChEMBL document CHEMBL1150894, “Three new manzamine congeners from amphimedon sponge” (J Nat Prod, 1998):
Values after ≈ are worked out from the molar mass of the structure shown.

Assays:
Micrococcus luteus = assay: Antibacterial activity against Sarcina lutea; assay type: functional
L1210 = assay: Cytotoxicity against mouse L1210 cells; assay type: functional, cell-based
Corynebacterium xerosis = assay: Antibacterial activity against Corynebacterium xerosis; assay type: functional

Structure (SMILES) | MIC (Micrococcus luteus) | IC50 (L1210) | MIC (Corynebacterium xerosis)
O[C@]12C=C(c3nccc4c3[nH]c3ccccc34)[C@@H]3CCN(CCCC/C=C\CC1)C[C@@]31C[C@@H]3/C=C\CCCCN3[C@H]12 [MANZAMINE A] | 2.3 µg/mL (≈ 4.19 µM) | 1.4 µg/mL (≈ 2.55 µM) | 5.7 µg/mL (≈ 10.4 µM)
O[C@]12C=C(C3=NCCc4c3[nH]c3ccccc43)[C@@H]3CCN(CC/C=C\CCCC1)C[C@@]31CC/C=C\CCCCN[C@H]12 | 12.5 µg/mL (≈ 22.6 µM) | 0.5 µg/mL (≈ 0.904 µM) | 12.5 µg/mL (≈ 22.6 µM)
